# Values quoted from earlier work in patent US20120316143A1, “Ophthalmic composition” (priority 2009, published 2012).
# Like-named read-outs stand apart in the source and are kept apart here.
# How the values were obtained:
# patients = conditions: applied topically as a 1% suspension
# [1] = tested on: rabbits made ocularly hypertensive with dexamethasone
# [2] = tested on: normal subjects; patients with ocular hypertension
smiles,measurement,setting,value
C[C@]12CC[C@@H](O)C[C@H]1CC[C@@H]1[C@@H]2[C@@H](O)C[C@@]2(C)[C@H]1CC[C@]2(O)C(=O)CO [3-α-5-β-Tetrahydrocortisol],effect on intraocular pressure,patients,lower intraocular pressure
"C[C@]12CC[C@@H](O)C[C@H]1CC[C@@H]1[C@@H]2[C@@H](O)C[C@@]2(C)[C@H]1CC[C@]2(O)C(=O)CO [Tetrahydrocortisol, tetrahydrocortisol]",effect on intraocular pressure (IOP),[1],lower intraocular pressure
CC1(C)[C@@H](OC(=O)CCC(=O)O)CC[C@]2(C)[C@H]3C(=O)C=C4[C@@H]5C[C@@](C)(C(=O)O)CC[C@]5(C)CC[C@@]4(C)[C@]3(C)CC[C@@H]12 [Carbenoxolone],decrease in intraocular pressure,[2]; normal subjects,20%
same,decrease in intraocular pressure,[2]; patients with ocular hypertension,20%
